In patent US20030216361A1, “Therapeutic compositions effective against gram positive bacteria” (priority 2000, published 2003):
Values after ≈ are worked out from the molar mass of the structure shown. Like-named read-outs stand apart in the source and are kept apart here.

Experiments:
[1] = system: Enterococcus faecalis ATCC 29212; assay: Disk diffusion susceptibility testing
[2] = system: Escherichia coli ATCC 25922; assay: Disk diffusion susceptibility testing
S. pneumoniae 6303 = assay: Time-kill studies; format: cell-based, Streptococcus pneumoniae
Source text: This experiment illustrates a study of the time required (time-kill studies) for anti-microbial action of 3β-acetoxy-17β-(L-prolyl) amino-5α-androstane with certain gram positive bacteria.
Overnight cultures of Staphylococcus aureus 29213, Enterococcus faecalis 29212 and S. pneumoniae 6303 in MHII broth were inoculated into the same medium containing multiples of the broth macrodilution MIC of 3β-acetoxy-17β-(L-prolyl) amino-5α-androstane, or an equivalent volume of MeOH. Cultures were shaken at 37° C., and aliquots were aseptically removed at various times for dilution plating. Standard errors of the means were calculated from at least two experiments. The detection limit in these experiments was 10 CFU/ml.

[3] = system: Streptococcus pneumoniae ATCC 6303; assay: Frequency of occurrence of spontaneous resistant mutants; format: cell-based; settings: 24 h
Description: (§1) Overnight cultures of S. aureus 29213, E. faecalis 29212, S. pneumoniae 6303 and Bacillus subtilis 620 were diluted to an OD625nm=0.08 0.1 ml of each preparation was spread onto agar plates containing four or eight times the broth macrodilution MIC of the androstane derivative. The starting inoculum for each organism was also diluted and plated onto drug-free plates for determination of CFU/ml. After a 24 h incubation at the appropriate temperature, the number of bacterial colonies on drug-supplemented agar was counted. The frequency of occurrence of spontaneous mutants was calculated by dividing the number of colonies on drug containing plates by the number of colonies in the inoculum. When no colonies were visualized on drug-containing plates, the calculation was (<) 1 colony divided by the number of colonies in the inoculum.

[4] = system: Staphylococcus aureus ATCC 29213; assay: as above; format: cell-based; settings: 24 h
Description: as §1

[5] = system: Bacillus subtilis Presque Isle 620; assay: as above; format: cell-based; settings: 24 h
Description: as §1

[6] = system: Enterococcus faecalis ATCC 29212; assay: as above; format: cell-based; settings: 24 h
Description: as §1

[7] = system: Klebsiella pneumoniae Presque Isle 344; assay: Disk diffusion susceptibility testing
[8] = system: Vancomycin-resistant E. faecalis; assay: Broth macrodilution MIC and MBC, clinical isolates; settings: 2 strains
[9] = system: S. epidermidis Presque Isle 4653; assay: Broth macrodilution MIC and MBC, reference strains; settings: Staphylococcus epidermidis
Rhodococcus spp. = assay: Broth macrodilution MIC and MBC, clinical isolates
Gordona bronchialis = assay: Broth macrodilution MIC and MBC, clinical isolates; settings: clinical isolate, 1 strain
B. cereus = assay: Broth macrodilution MIC and MBC, clinical isolates; settings: 5 strains
Paenibacillus alvei = assay: Broth macrodilution MIC and MBC, clinical isolates; settings: clinical isolate, 1 strain
Nocardia asteroides = assay: Broth macrodilution MIC and MBC, clinical isolates; settings: clinical isolate, 1 strain
Gardnerella vaginalis = assay: Broth macrodilution MIC and MBC, clinical isolates; settings: 2 strains
B. licheniformis = assay: Broth macrodilution MIC and MBC, clinical isolates; settings: clinical isolate, 1 strain
N. farcinica = assay: Broth macrodilution MIC and MBC, clinical isolates; settings: clinical isolate, 1 strain
[10] = system: Methicillin-resistant Staphylococcus aureus; assay: Broth macrodilution MIC and MBC, clinical isolates
[11] = system: Bacillus subtilis Presque Isle 620; assay: Disk diffusion susceptibility testing
C. sputi = assay: Broth macrodilution MIC and MBC, clinical isolates; settings: clinical isolate, 1 strain
[12] = agar with 4X broth macrodilution MIC
[13] = agar with 8X broth macrodilution MIC

Compound: CC(=O)O[C@H]1CC[C@@]2(C)[C@@H](CC[C@@H]3[C@@H]2CC[C@]2(C)[C@@H](NC(=O)[C@@H]4CCCN4)CC[C@@H]32)C1
- MIC [1]: 25-50 μg/disk
- MIC [2]: >100 μg/disk
- Killing (concentration dependence) (S. pneumoniae 6303): concentration-dependent
- Killing (time dependence) (S. pneumoniae 6303): time-dependent
- time to 99.9% kill (S. pneumoniae 6303; at the MIC): 6 h
- survivors after 24 h (S. pneumoniae 6303; one times the MIC): no survivors
- time to 99.9% kill (S. pneumoniae 6303; two times the MIC): 2 h
- survivors after 24 h (S. pneumoniae 6303; two times the MIC): no survivors
- Frequency at 4X MIC [3, 12]: <3.3 × 10^−6
- Frequency at 8X MIC [3, 13]: <3.3 × 10^−6
- Frequency at 4X MIC [4, 12]: 1.2 × 10^−6
- Frequency at 8X MIC [4, 13]: <6 × 10^−9
- Frequency at 4X MIC [5, 12]: <2.2 × 10^−7
- Frequency at 8X MIC [5, 13]: <2.2 × 10^−7
- Frequency at 4X MIC [6, 12]: 8.9 × 10^−7
- Frequency at 8X MIC [6, 13]: <1 × 10^−8
- MIC [7]: >100 μg/disk
- MBC Range [8]: 16 to 64 µg/mL
- MIC Range [8]: 8 to 16 µg/mL
- MBC [9]: 32 µg/mL (≈ 74.3 µM)
- MIC [9]: 8 µg/mL (≈ 18.6 µM)
- MIC50 (Rhodococcus spp.; Rhodococcus): 8 µg/mL (≈ 18.6 µM)
- MIC90 (Rhodococcus spp.; Rhodococcus): 16 µg/mL (≈ 37.2 µM)
- share of strains with MBC/MIC ratios ≦2 (Rhodococcus spp.; Rhodococcus spp.): 58%
- MBC (Rhodococcus spp.; Rhodococcus, read-out: MBC 50%): 16 µg/mL (≈ 37.2 µM)
- MBC (Rhodococcus spp.; Rhodococcus, read-out: MBC 90%): 32 µg/mL (≈ 74.3 µM)
- MIC Range (Rhodococcus spp.; clinical isolates, 19 strains, read after 48 h): 4 to 64 µg/mL
- MBC Range (Gordona bronchialis): 8 µg/mL (≈ 18.6 µM)
- MIC Range (Gordona bronchialis): 8 µg/mL (≈ 18.6 µM)
- MBC Range (B. cereus): >64 µg/mL
- MIC Range (B. cereus): 32 µg/mL (≈ 74.3 µM)
- MBC Range (Paenibacillus alvei): >64 µg/mL
- MIC Range (Paenibacillus alvei): 16 µg/mL (≈ 37.2 µM)
- MBC Range (Nocardia asteroides): 32 µg/mL (≈ 74.3 µM)
- MIC Range (Nocardia asteroides): 8 µg/mL (≈ 18.6 µM)
- MBC Range (Gardnerella vaginalis): 8 µg/mL (≈ 18.6 µM)
- MIC Range (Gardnerella vaginalis; read after 48 h): 4 µg/mL (≈ 9.29 µM)
- MBC Range (B. licheniformis): >64 µg/mL
- MIC Range (B. licheniformis): 32 µg/mL (≈ 74.3 µM)
- MBC Range (N. farcinica): 64 µg/mL (≈ 149 µM)
- MIC Range (N. farcinica): 16 µg/mL (≈ 37.2 µM)
- MIC50 ([10]; Staphylococcus aureus): 8 µg/mL (≈ 18.6 µM)
- MIC90 ([10]; Staphylococcus aureus): 8 µg/mL (≈ 18.6 µM)
- MBC ([10]; Staphylococcus aureus, read-out: MBC 50%): 16 µg/mL (≈ 37.2 µM)
- MBC ([10]; Staphylococcus aureus, read-out: MBC 90%): > 64 µg/mL
- MIC Range ([10]; clinical isolates, 22 strains): 4 to 8 µg/mL
- share of strains with MBC/MIC ratios ≦2 ([10]; methicillin-resistant S. aureus): 73%
- MIC [11]: 3.12-6.25 μg/disk
- MBC Range (C. sputi): 32 µg/mL (≈ 74.3 µM)
- MIC Range (C. sputi; read at 72 h): 8 µg/mL (≈ 18.6 µM)
